Assay results taken from patent publication US8541373B2, “BChE albumin fusions for the treatment of cocaine abuse” (priority 2009, dated 2013).
Values joined by “and” are separate entries in the source; they are usually repeats but may differ in a detail not shown here. Equal values may be shown once. Read-outs that look alike come from different tables or passages of the source.

What was measured:
[1] = rats, i.v. injection, cited from earlier work
cocaine = assay: AlbuBChE PK/PD analysis, direct inhibitory effect Emax model (cocaine concentration at 5 min); details: Squirrel monkeys, cocaine at 5 min, approximate estimate
Procedure: In spite of the limited amount of data, an attempt was made to characterize PK/PD relationship. The computer software WinNonlin Professional (Version 4.0.1 Pharsight Corporation, USA) was used. Specifically the direct Inhibitory Effect Emax model was use in which Emax was assumed at AlbuBChE concentration of zero. The model equation can be described as follows: E=Emax*(1−(C/(C+EC50)))
The PD parameter used in the analysis was cocaine plasma concentration at 5 min post-cocaine dose. PK parameters used in the model were AlbuBChE plasma concentrations at 2, 72 and 96 hr post-AlbuBChE dose. Due to the fact that AlbuBChE concentration was not measured at 2 hr post-AlbuBChE dose, the 1st time sample collected was used in the analysis (24 hr post-AlbuBChE dose) with the assumptions that AlbuBChE concentration at 24 hr post AlbuBChE dose may reflect AlbuBChE concentration at 2 hr post AlbuBChE dose.

[2] = test system: cocaine discriminative-stimulus effects; assay: Drug discrimination in methamphetamine-trained monkeys; type: in vivo, squirrel monkeys
[3] = Cardiovascular and respiratory safety pharmacology of AlbuBChE alone (telemetry); details: 15 mg/kg IM
Procedure: Prior to the start of the study, the monkeys were surgically instrumented with telemetry transmitters and vascular access ports. The following CV parameters were monitored: systolic pressure, diastolic pressure, mean arterial blood pressure, mean heart rate and mean rate-pressure product. Body temperatures changes were also monitored.
Study Group 1 (3 males and 3 females), served as a control group for testing the effect of AlbuBChE alone compared to its vehicle. Monkeys were administered (IM) with the control article AlbuBChE formulation buffer on Study Days (SDs) 1 and 4. Three hours post formulation buffer administration respiratory and cardiovascular (CV) parameters were recorded, respectively.
A single IM dose of the test article (AlbuBChE at 15 mg/kg) was administered on SD 8 and 11. Three hours after AlbuBChE dosing (corresponding to Tmax of AlbuBChE) CV and respiratory parameters were monitored, respectively.
The physiological responses to test article administration, including blood pressure, heart rate, body temperature, and the electrocardiograph (ECG), were monitored.

[4] = AlbuBChE antibodies and blood level after repeated AlbuBChE injections
Source text: The monkeys trained to self-administer cocaine and also tested on the reinstatement procedure received a total of 4 injections of AlbuBChE. Blood was taken for determination of AlbuBChE antibodies after the first, second and fourth AlbuBChE injections.

[5] = test system: cocaine self-administration; assay: Cocaine self-administration; type: in vivo, squirrel monkeys (Saimiri sciureus)
Source text: Adult male squirrel monkeys (Saimiri sciureus) weighing 0.8 to 1.2 kg were used as subjects. All monkeys were individually housed in a humidity and temperature controlled room and had free access to water. The monkeys were fed following any experimental procedures an amount of food (Lab Diet 5045, PMI Nutrition International, Richmond, Ind.; Banana Softies, Bio-Serv, Frenchtown, N.J.) determined to maintain a stable weight. Fresh fruit, vegetables and environmental enrichment were also provided daily. The animal care facilities were fully accredited by AAALAC and all experiments were approved by the NIDA Intramural Research Program Animal Care and Use Committee.
Three monkeys were trained to self-administer 30 μg/kg/inj i.v. cocaine. Details of the self-administration training procedure can be found elsewhere (Justinova et al., 2003). In brief, the monkeys were placed in a seated position in a Plexiglas restraint chair. The chair was enclosed in a larger acoustical chamber. On the front wall of the restraint chair there was a response lever and stimulus lights. A green light signaled the beginning of the session. The monkeys were trained to make 10 responses (fixed-ratio, FR, 10) to receive an i.v. injection of cocaine. The injection of cocaine was accompanied by the green light, turning off and a yellow stimulus light being presented for 2 sec. Following each cocaine injection there was also a 60-sec timeout. At the end of the timeout, the green light was turned on. Sessions lasted for 1 hour. Occasionally, saline was substituted for cocaine. Following the establishment of stable cocaine self-administration and reliable extinction of responding following saline substitution, AlbuBChE (5 mg/kg, i.m.) or its vehicle (i.m.) were given 2 hours prior to a self-administration session. Self-administration responding was then measured for 5 consecutive days. Following each drug test or saline substitution, responding for 30 μg/kg/inj cocaine was reestablished for at least 5 days. Following reinstatement testing (see below), the dose of cocaine available for self-administration was lowered to 10 μg/kg/inj and the effect of AlbuBChE (5 mg/kg, i.m.) was again determined.
The blood level data were analyzed separately for each metabolite and time point (5 or 30 min). […] The self-administration data were analyzed separately for response rate or injections following either vehicle treatment or AlbuBChE treatment. Control data were included in the analysis by taking the average of the last 3 days for the immediately preceding baseline condition. A within subjects ANOVA was then performed with follow-up tests contrasting days following vehicle or AlbuBChE with the control. For the reinstatement tests, a two-way ANOVA was performed for both response rate and injections, with time post vehicle or AlbuBChE as the within-subjects factor and pretreatment (vehicle or AlbuBChE) as the between subjects factor. Follow-up contrast compared vehicle and AlbuBChE at each time point.

[6] = rats; cited from earlier work
[7] = 5 mg/kg i.m., 30 μg/kg/inj cocaine, tracked 5 days

## AlbuBChE
[1]
  Plasma half-life: approximately 8 hours
[1]; listed as BChE-albumin fusion
  Plasma half-life: 8 h
cocaine
  AlbuBChE serum concentration that may result in 50% decrease in cocaine concentration (EC50): ~0.4 µg/mL
[2]; 5 mg/kg 2 hrs prior, 0.3 mg/kg cocaine
  Generalization of cocaine to the methamphetamine cue: failed to generalize
[2]; 5 mg/kg 2 hrs prior, 1.0 mg/kg cocaine
  Substitution of cocaine for methamphetamine: approximately 70%
[2]; 24 hrs following AlbuBChE, 0.3 mg/kg cocaine
  Generalization of cocaine to the methamphetamine cue: approximately 70%
[2]; 24 hrs following AlbuBChE, 1.0 mg/kg cocaine
  Generalization of cocaine to the methamphetamine cue: fully generalized
[2]; 48 hrs following AlbuBChE, 0.3 mg/kg cocaine
  Generalization of cocaine to the methamphetamine cue: fully generalized
[2]; AlbuBChE 2 hrs prior to methamphetamine dose-effect function
  Generalization of methamphetamine to the methamphetamine cue: did not affect generalization
[2]; cocaine or methamphetamine treatment condition
  Rate of responding in discrimination study: did not affect the rate of responding
[3]
  Changes in recorded CV parameters and body temperature vs formulation buffer: did not produce any significant changes
[3]; with or without cocaine
  Survival: All animals survived
[4]; following the first 2 injections, level of detection titer 20
  AlbuBChE antibody levels: below the level of detection
[4]; following the fourth injection
  AlbuBChE antibody titer, individual monkeys: 21 and 43 and 643
[4]; one week following the AlbuBChE injection (fourth)
  Concentration of AlbuBChE in the blood, individual monkeys: 27 ng/mL and 55 ng/mL and 53 ng/mL
[5]; 30 μg/kg/inj cocaine, reduced effectiveness
  Duration of effect on cocaine self-administration: ≥ 3 days
[5]; 5 mg/kg i.m., 30 μg/kg/inj cocaine
  Cocaine self-administration: reduced self-administration
[5]; [7]
  Self-administration injections vs baseline: significantly different from control on day 1 and 4
  Self-administration response rate vs baseline: different from control on days 1-4
[5]; 5 mg/kg, 10 μg/kg/inj cocaine, 2 hrs following AlbuBChE
  Self-administration response rate and injections: failed to reach significance
[6]
  Side effects of intravenous administration: modest increase in blood pressure and mild lethargy
